Results taken from US9101638B2, “Boronic acid derivatives and therapeutic uses thereof” (Rempex Pharmaceuticals, Inc., priority 2013, dated 2015).
Counter-ions that a name gives are not always drawn.

Legend:
KP1005 (CTX-M-14) = test: Potentiation of aztreonam, strain KP1005; format: cell-based
ec308 (SHV-5) [1] = test: Potentiation of aztreonam, strain ec308; format: cell-based; conditions: minimum BLI concentration inhibiting growth with 4 μg/mL aztreonam
ec302 (TEM-10) [2] = test: Potentiation of aztreonam, strain ec302; format: cell-based
KP1004 (K-2) = test: Potentiation of aztreonam, strain KP1004; format: cell-based; conditions: minimum BLI concentration inhibiting growth with 4 μg/mL aztreonam
ECL1002 = test: Potentiation of aztreonam, strain ECL1002; format: cell-based; conditions: minimum BLI concentration inhibiting growth with 4 μg/mL aztreonam
ec308 (SHV-5) [3] = test: Potentiation of tigemonam, strain ec308; format: cell-based; conditions: minimum BLI concentration inhibiting growth with 4 μg/mL tigemonam
EC1010 (CMY-6) [4] = format: cell-based
CTX-M-14 = CTX-M-14 (Escherichia coli, UniProt Q9L5C7); test: Inhibition of nitrocefin cleavage by purified CTX-M-14; format: biochemical; conditions: nitrocefin reporter substrate, purified enzyme; read-out: Ki (CTX-M-14, NCF)
Method: (§1) Purified enzymes were mixed with various concentrations of inhibitors in reaction buffer and incubated for 10 min at room temperature. Nitrocefin was added and substrate cleavage profiles were recorded at 490 nm every 10 sec for 10 min.

KPC-2 = KPC-2 (Klebsiella pneumoniae, UniProt Q9F663); test: Inhibition of nitrocefin cleavage by purified KPC-2; format: biochemical; conditions: nitrocefin reporter substrate, purified enzyme; read-out: Ki (KPC-2, NCF)
Method: as §1

OXA-48 = OXA-48 (Klebsiella pneumoniae, UniProt Q6XEC0); test: Inhibition of nitrocefin cleavage by purified OXA-48; format: biochemical; conditions: nitrocefin reporter substrate, purified enzyme; read-out: Ki (OXA-48, NCF)
Method: as §1

PAM1032/KPC-2 = test: Biapenem potentiation in PAM1032/KPC-2 (MexAB-OprM overexpressed); format: cell-based, Pseudomonas aeruginosa; conditions: BLI potency to decrease biapenem MIC 64-fold, 32 to 0.5 μg/ml; efflux proficient strain
Method: (§2) Efflux of BLIs from Pseudomonas aeruginosa by the MexAB-OprM efflux pump was also evaluated. […] Due to expression of KPC-2 both strains became resistant to biapenem. […] Potency of BLIs to potentiate biapenem in these strains was determined. […] The ratio of MPC64 values for each BLI in PAM1032/KPC-2 (efflux proficient) and PAM1154/KPC-2 (efflux deficient) was determined to generate the Efflux Index (EI).

PAM1154/KPC-2 = test: Biapenem potentiation in PAM1154/KPC-2 (MexAB-OprM lacking); format: cell-based, Pseudomonas aeruginosa
Method: as §2

KP1009 (CTX-M-15) [5] = test: Potentiation of tigemonam, strain KP1009; conditions: minimum BLI concentration inhibiting growth with 4 μg/mL tigemonam
KP1009 (CTX-M-15) [6] = test: Potentiation of aztreonam, strain KP1009; format: cell-based
EC1010 (CMY-6) [7] = test: Potentiation of aztreonam, strain EC1010; format: cell-based
ec302 (TEM-10) [8] = test: Potentiation of tigemonam, strain ec302; format: cell-based
SHV-12 = SHV-12 (Klebsiella pneumoniae, UniProt P0AD64, E235K/G234S/L31Q); test: Inhibition of nitrocefin cleavage by purified SHV-12; format: biochemical; conditions: nitrocefin reporter substrate, purified enzyme; read-out: Ki (SHV-12, NCF)
Method: as §1

CathepsinA = target: T1, CathepsinA (Homo sapiens, UniProt P10619); test: Serine protease inhibition: cathepsin A; format: biochemical, mammalian; conditions: Table 8B; read-out: IC50 CathepsinA
T1 construct: purchased R&D Systems 1049-SE
T1 sequence (P10619 29-480): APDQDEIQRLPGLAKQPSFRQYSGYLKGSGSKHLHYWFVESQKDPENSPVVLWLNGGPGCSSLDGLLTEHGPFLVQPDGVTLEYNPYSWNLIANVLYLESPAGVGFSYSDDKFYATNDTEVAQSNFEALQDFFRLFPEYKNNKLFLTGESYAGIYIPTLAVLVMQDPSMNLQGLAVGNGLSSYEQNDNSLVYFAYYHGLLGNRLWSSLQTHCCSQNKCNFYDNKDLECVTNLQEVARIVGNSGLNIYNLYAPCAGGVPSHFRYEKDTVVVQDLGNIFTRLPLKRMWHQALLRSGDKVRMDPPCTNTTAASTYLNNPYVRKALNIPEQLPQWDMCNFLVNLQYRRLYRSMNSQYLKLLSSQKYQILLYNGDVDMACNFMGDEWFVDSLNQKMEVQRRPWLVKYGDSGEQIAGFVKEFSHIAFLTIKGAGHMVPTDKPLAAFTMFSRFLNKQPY
Method: (§3) The effect of selected BLIs on the enzymatic activity of some common mammalian serine proteases was evaluated.
(§4) 50 μl of the diluted enzyme was mixed with 50 μl of inhibitor at various concentrations and 50 μl of corresponding buffer (Table 7). Reaction mixtures were incubated for 10 min at 37° C. Subsequently, 50 μl of corresponding substrate (Table 7) was added and absorbance or fluorescence was monitored for 30 min on SpectraMax M2 plate reader (Molecular Devices). 4-(2-Aminoethyl)benzenesulfonyl fluoride hydrochloride (AEBSF) and leupeptin were used as positive controls. Rates of reaction were calculated and presented relative to “no treatment” control.

CathepsinG = target: T2, CathepsinG (Homo sapiens, UniProt P08311); test: Serine protease inhibition: cathepsin G; format: biochemical, mammalian; conditions: Table 8B
T2 construct: purchased EMD Millipore 219373
T2 sequence (P08311 21-244): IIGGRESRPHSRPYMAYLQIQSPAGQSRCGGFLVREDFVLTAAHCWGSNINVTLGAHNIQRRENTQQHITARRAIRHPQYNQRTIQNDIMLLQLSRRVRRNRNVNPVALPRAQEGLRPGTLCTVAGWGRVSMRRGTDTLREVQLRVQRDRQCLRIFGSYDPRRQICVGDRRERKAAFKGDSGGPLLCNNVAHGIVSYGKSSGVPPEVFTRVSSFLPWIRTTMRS
Method: as §3, §4

Thrombin = target: T3, Thrombin (Homo sapiens, UniProt P00734); test: Serine protease inhibition: thrombin; format: biochemical, mammalian
T3 construct: Thrombin; MPBio; 19491880; purchased MPBio 19491880
Method: as §3, §4

Urokinase = target: T4, Urokinase (Homo sapiens, UniProt P00749); test: Serine protease inhibition: urokinase; format: biochemical, mammalian
T4 construct: purchased Calbiochem 672112
Method: as §3, §4

Chymase = target: T5, Chymase (Homo sapiens, UniProt P23946); test: Serine protease inhibition: chymase; format: biochemical, mammalian
T5 construct: purchased Enzo Lifescience BML-SE281
T5 sequence (P23946 22-247): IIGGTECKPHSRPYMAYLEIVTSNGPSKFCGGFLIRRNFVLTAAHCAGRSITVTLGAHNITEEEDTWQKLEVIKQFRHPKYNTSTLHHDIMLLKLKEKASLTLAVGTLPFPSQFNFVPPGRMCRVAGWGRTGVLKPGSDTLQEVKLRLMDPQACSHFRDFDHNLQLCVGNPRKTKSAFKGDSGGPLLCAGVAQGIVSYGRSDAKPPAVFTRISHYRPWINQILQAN
Method: as §3, §4

Neutrophil elastase = target: T6, Neutrophil elastase (Homo sapiens, UniProt P08246); test: Serine protease inhibition: neutrophil elastase; format: biochemical, mammalian
T6 construct: purchased Calbiochem 324681
T6 sequence (P08246 30-267): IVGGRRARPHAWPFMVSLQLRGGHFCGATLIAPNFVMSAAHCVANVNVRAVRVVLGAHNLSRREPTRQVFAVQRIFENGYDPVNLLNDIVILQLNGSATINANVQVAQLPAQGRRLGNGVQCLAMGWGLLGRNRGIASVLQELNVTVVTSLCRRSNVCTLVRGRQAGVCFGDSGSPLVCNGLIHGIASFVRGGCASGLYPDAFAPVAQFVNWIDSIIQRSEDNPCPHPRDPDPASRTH
Method: as §3, §4

Chain of CTX-M-14 (Q9L5C7 entry or part of it): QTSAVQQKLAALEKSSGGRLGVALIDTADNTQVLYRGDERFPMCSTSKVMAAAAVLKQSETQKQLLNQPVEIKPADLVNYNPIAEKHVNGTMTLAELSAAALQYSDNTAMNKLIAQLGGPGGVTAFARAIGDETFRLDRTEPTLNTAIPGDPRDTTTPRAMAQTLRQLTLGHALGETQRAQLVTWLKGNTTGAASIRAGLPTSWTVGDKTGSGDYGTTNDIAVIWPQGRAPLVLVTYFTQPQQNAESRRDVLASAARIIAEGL
Chain of KPC-2 (Q9F663 25-293, looked up, species assumed): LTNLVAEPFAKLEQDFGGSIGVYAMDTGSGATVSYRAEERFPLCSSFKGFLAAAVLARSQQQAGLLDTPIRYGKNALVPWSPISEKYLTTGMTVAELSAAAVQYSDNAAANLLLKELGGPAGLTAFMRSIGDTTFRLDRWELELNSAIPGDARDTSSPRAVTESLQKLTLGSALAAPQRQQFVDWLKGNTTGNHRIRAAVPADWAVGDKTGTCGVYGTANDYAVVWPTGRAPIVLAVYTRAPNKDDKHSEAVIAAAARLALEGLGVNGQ
Chain of SHV-12 (P0AD64 22-286 L31Q/G234S/E235K): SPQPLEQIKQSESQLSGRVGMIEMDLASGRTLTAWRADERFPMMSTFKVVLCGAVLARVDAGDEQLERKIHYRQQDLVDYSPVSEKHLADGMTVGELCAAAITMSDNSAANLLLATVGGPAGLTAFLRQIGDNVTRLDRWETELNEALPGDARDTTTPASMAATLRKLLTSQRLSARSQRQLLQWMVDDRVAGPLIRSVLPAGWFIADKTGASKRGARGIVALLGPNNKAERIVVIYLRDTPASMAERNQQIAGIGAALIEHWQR
Chain of OXA-48 (Q6XEC0 23-265 limits assumed): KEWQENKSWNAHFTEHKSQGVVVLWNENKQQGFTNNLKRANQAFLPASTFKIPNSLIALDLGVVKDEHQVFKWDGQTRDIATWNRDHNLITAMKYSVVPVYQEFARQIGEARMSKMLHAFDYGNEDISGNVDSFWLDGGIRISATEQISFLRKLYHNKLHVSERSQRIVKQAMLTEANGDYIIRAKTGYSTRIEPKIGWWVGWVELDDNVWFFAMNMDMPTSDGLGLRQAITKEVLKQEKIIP

Row | Compound | AZT MPC4 CTX-M-14 KP1005 (KP1005 (CTX-M-14)) | AZT MPC4 SHV-5 ec308 (ec308 (SHV-5) [1]) | AZT MPC4 TEM-10 ec302 (ec302 (TEM-10) [2]) | AZT MPC4 K-2 KP1004 (KP1004 (K-2)) | AZT MPC4 ECL1002 (ECL1002) | TIG MPC4 SHV-5 ec308 (ec308 (SHV-5) [3]) | TIG MPC4 CMY-6 EC1010 (EC1010 (CMY-6) [4]) | Ki (CTX-M-14) | Ki (KPC-2) | Ki (OXA-48) | PAM1032/KPC-2 Biapenem MPC64 (PAM1032/KPC-2) | PAM1154/KPC-2 Biapenem MPC64 (PAM1154/KPC-2) | TIG MPC4 CTX-M-15 KP1009 (KP1009 (CTX-M-15) [5]) | AZT MPC4 CTX-M-15 KP1009 (KP1009 (CTX-M-15) [6]) | AZT MPC4 CMY-6 EC1010 (EC1010 (CMY-6) [7]) | TIG MPC4 TEM-10 ec302 (ec302 (TEM-10) [8]) | Ki (SHV-12) | IC50 (CathepsinA) | IC50 (CathepsinG) | further results
1 | CSCC(=O)N[C@H]1Cc2cccc(C(=O)O)c2OB1O [Compound 13, (R)-2-hydroxy-3-(2-(methylthio)acetamido)-3,4-dihydro-2H-benzo[e][1,2]oxaborinine-8-carboxylic acid] | X (key: X = MIC of less than 1 μg/mL; Y = MIC of 1 μg/mL to 10 μg/mL; Z = MIC of greater than 10 μg/mL) | X (X = MIC of less than 1 μg/mL) | Y (key: X = MIC of less than 1 μg/mL; Y = MIC of 1 μg/mL to 10 μg/mL; Z = MIC of greater than 10 μg/mL) | X (X = MIC of less than 1 μg/mL) | X (X = MIC of less than 1 μg/mL) | X (X = MIC of less than 1 μg/mL) | X (key: X = MIC of less than 1 μg/mL; Y = MIC of 1 μg/mL to 10 μg/mL; Z = MIC of greater than 10 μg/mL) | < 0.001 µM | > 0.01 µM | < 0.001 µM | Y (Y = 10 to 40) | X (key: X = Less than 10; Y = 10 to 40; Z Greater than 40) | X (X = MIC of less than 1 μg/mL) |  |  |  |  |  |  | 
2 | O=C(N[C@H]1Cc2cccc(C(=O)O)c2OB1O)c1cncs1 [Compound 15, (R)-2-hydroxy-3-(thiazole-5-carboxamido)-3,4-dihydro-2H-benzo[e][1,2]oxaborinine-8-carboxylic acid] | Y (key: X = MIC of less than 1 μg/mL; Y = MIC of 1 μg/mL to 10 μg/mL; Z = MIC of greater than 10 μg/mL) | X (X = MIC of less than 1 μg/mL) | X (key: X = MIC of less than 1 μg/mL; Y = MIC of 1 μg/mL to 10 μg/mL; Z = MIC of greater than 10 μg/mL) | Y (Y = MIC of 1 μg/mL to 10 μg/mL) | Y (Y = MIC of 1 μg/mL to 10 μg/mL) | Y (Y = MIC of 1 μg/mL to 10 μg/mL) | Y (key: X = MIC of less than 1 μg/mL; Y = MIC of 1 μg/mL to 10 μg/mL; Z = MIC of greater than 10 μg/mL) | < 0.001 µM | > 0.01 µM | < 0.001 µM | Z (Z Greater than 40) | X (key: X = Less than 10; Y = 10 to 40; Z Greater than 40) | Y (Y = MIC of 1 μg/mL to 10 μg/mL) | Y (key: X = MIC of less than 1 μg/mL; Y = MIC of 1 μg/mL to 10 μg/mL; Z = MIC of greater than 10 μg/mL) | Y (key: X = MIC of less than 1 μg/mL; Y = MIC of 1 μg/mL to 10 μg/mL; Z = MIC of greater than 10 μg/mL) | Y (key: X = MIC of less than 1 μg/mL; Y = MIC of 1 μg/mL to 10 μg/mL; Z = MIC of greater than 10 μg/mL) | < 0.001 µM | 15 to 500 µM | 15 to 500 µM | 
3 | NCCc1ccc(S(=O)(=O)F)cc1 [AEBSF, 4-(2-Aminoethyl)benzenesulfonyl fluoride hydrochloride, reference compound] |  |  |  |  |  |  |  |  |  |  |  |  |  |  |  |  |  |  |  | IC50 (Thrombin): 100 µM; IC50 (Urokinase): 8.2 µM; IC50 (Chymase): 375 µM; IC50 (Neutrophil elastase): > 500 µM
4 | O=C(N[C@H]1Cc2cccc(C(=O)O)c2OB1O)c1cncc(F)c1 [Compound 14, (R)-3-(5-fluoronicotinamido)-2-hydroxy-3,4-dihydro-2H-benzo[e][1,2]oxaborinine-8-carboxylic acid] | Y (key: X = MIC of less than 1 μg/mL; Y = MIC of 1 μg/mL to 10 μg/mL; Z = MIC of greater than 10 μg/mL) | Y (Y = MIC of 1 μg/mL to 10 μg/mL) | Y (key: X = MIC of less than 1 μg/mL; Y = MIC of 1 μg/mL to 10 μg/mL; Z = MIC of greater than 10 μg/mL) | Y (Y = MIC of 1 μg/mL to 10 μg/mL) | Y (Y = MIC of 1 μg/mL to 10 μg/mL) | Y (Y = MIC of 1 μg/mL to 10 μg/mL) | Y (key: X = MIC of less than 1 μg/mL; Y = MIC of 1 μg/mL to 10 μg/mL; Z = MIC of greater than 10 μg/mL) | < 0.001 µM | > 0.01 µM |  | Z (Z Greater than 40) | X (key: X = Less than 10; Y = 10 to 40; Z Greater than 40) | Y (Y = MIC of 1 μg/mL to 10 μg/mL) | Y (key: X = MIC of less than 1 μg/mL; Y = MIC of 1 μg/mL to 10 μg/mL; Z = MIC of greater than 10 μg/mL) | Y (key: X = MIC of less than 1 μg/mL; Y = MIC of 1 μg/mL to 10 μg/mL; Z = MIC of greater than 10 μg/mL) | Y (key: X = MIC of less than 1 μg/mL; Y = MIC of 1 μg/mL to 10 μg/mL; Z = MIC of greater than 10 μg/mL) | < 0.001 µM | 15 to 500 µM | 15 to 500 µM | 
